Assay results reported in US9474790B2, “Stable, protracted GLP-1/glucagon receptor co-agonists for medical use” (Novo Nordisk A/S, priority 2013, dated 2016).
pEC50: −log10 of the molar value. Numbered stars: 1 amine (or outer) side, 2 acyl side, 3 side chain; on linkers, the order of the positions; unused ones are H or OH. Bridge positions count the residues as written; N and C are the ends. Square brackets hold non-standard residues; d marks the D form. Side chains are listed from the residue outwards. Peptide text beside a SMILES is read from it. I, II: the chains in the order shown. * marks the point of attachment. C18 diacid = O=C(O)CCCCCCCCCCCCCCCCC(=O)*; γGlu = O=C(O)[C@H](CCC(=O)[*:2])N[*:1]; AEEA = NCCOCCOCC(=O)O; Aib = CC(C)(N)C(=O)O

molecular target: T1, human glucagon receptor (Homo sapiens, UniProt P47871); test: Glucagon receptor potency, CRE luciferase reporter gene assay in BHK cells; type: cell-based; details: BHK cells expressing human glucagon receptor, read-out: EC50 GlucR
T1 construct: expressed in transfected cells; host or cells: BHK cells (parent BHK570, CRE luciferase clone BHK/KZ10-20-48), clone pLJ6'-4-25
T1 sequence (P47871 26-477): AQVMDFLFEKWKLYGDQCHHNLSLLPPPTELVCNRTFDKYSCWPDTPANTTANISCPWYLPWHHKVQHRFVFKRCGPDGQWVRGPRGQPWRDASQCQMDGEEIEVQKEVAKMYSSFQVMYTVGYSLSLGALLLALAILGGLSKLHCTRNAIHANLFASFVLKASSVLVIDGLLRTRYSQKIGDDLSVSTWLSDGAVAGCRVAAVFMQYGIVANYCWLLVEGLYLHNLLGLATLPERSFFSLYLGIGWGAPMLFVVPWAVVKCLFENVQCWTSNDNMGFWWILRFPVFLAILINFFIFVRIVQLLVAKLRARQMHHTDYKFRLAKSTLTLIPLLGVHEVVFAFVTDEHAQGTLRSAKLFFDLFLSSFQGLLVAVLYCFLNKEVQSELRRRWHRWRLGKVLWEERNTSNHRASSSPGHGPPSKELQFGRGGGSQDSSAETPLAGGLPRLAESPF
Experimental: The purpose of this example was to test the potency, of the glucagon derivatives of the invention, in vitro. The in vitro potency is the measure of human GLP-1 receptor or glucagon receptor activation, respectively, in a whole cell assay.
In vitro potency was determined by measuring the response of human GLP-1 or glucagon receptor, respectively, in a reporter gene assay. The assay was performed in a stably transfected BHK cell line that expresses either the human GLP-1 receptor or the human glucagon receptor and contains the DNA for the cAMP response element (CRE) coupled to a promoter and the gene for firefly luciferase (CRE luciferase). […] When assay incubation was completed, the luciferase substrate (luciferin) was added and the enzyme converted luciferin to oxyluciferin and produces bioluminescence. The luminescence was measured as the readout for the assay.
The cells used in this assay (clone pLJ6′-4-25) were BHK cells with BHK570 as a parent cell line expressing the CRE luciferase gene (clone BHK/KZ10-20-48) and were established by further transfection with the human glucagon receptor (clone pLJ6′ in pHZ-1 vector).
The cells were cultured at 5% CO2 in DMEM medium with 10% FBS, 1×GlutaMAX, 1 mg/ml G418, 240 nM MTX (methotrexate) and 1% pen/strep (penicillin/streptomycin). They were aliquoted and stored in liquid nitrogen. Before each assay, an aliquot was taken up and washed three times in PBS before being suspended at the desired concentration in assay medium. For 96-well plates the suspension was made to give a final concentration of 5×10EE3 cells/well.
The following chemicals were used in the assay: Pluronic F-68 (10%) (Gibco 2404), ovalbumin (Sigma A5503), DMEM w/o phenol red (Gibco 11880-028), 1 M Hepes (Gibco 15630), Glutamax 100× (Gibco 35050) and steadylite plus (PerkinElmer 6016757).
Assay Medium consisted of DMEM w/o phenol red, 10 mM Hepes, 1× GlutaMAX, 2% Ovalbumin and 0.2% Pluronic F-68.
Cell stocks were thawed in a 37° C. water bath. Cells were washed three times in PBS. The cells were counted and adjusted to 5×10EE3 cells/50 μl (1×10EE5 cells/ml) in Assay Medium. A 50 μl aliquot of cells was transferred to each well in the assay plate.
Stocks of the test compounds and reference compounds were diluted to a concentration of […] in Assay Medium. Compounds were diluted 10-fold to give the following concentrations: 2×10EE-6 M, 2×10EE-7 M, 2×10EE-8 M; 2×10EE-9 M, 2×10EE-10 M, 2×10EE-11 M, 2×10EE-12 M and 2×10EE-13 M. For each compound a blank assay medium control was also included.
A 50 μl aliquot of compound or blank was transferred from the dilution plate to the assay plate. Compounds were tested at the following final concentrations: 1×10EE-6 M, 1×10EE-7 M, 1×10EE-8 M; 1×10EE-9 M, 1×10EE-10 M, 1×10EE-11 M and 1×10EE-12 M and 1×10EE-13 M.
The assay plate was incubated for 3 h in a 5% CO2 incubator at 37° C. The assay plate was removed from the incubator and allowed to stand at room temperature for 15 min. A 100 μl aliquot of steadylite plus reagent was added to each well of the assay plate (reagent is light sensitive). Each assay plate was covered with aluminum foil to protect it from light and shaken for 30 min at room temperature. Each assay plate was read in a Perkin Elmer TopCount NXT instrument.
The data from the TopCount instrument was transferred to GraphPad Prism software. The software performed a non-linear regression (log(agonist) vs response-Variable slope (four parameter)). EC50 values were calculated by the software and reported in pM.

pEC50	Compound
10.11	CC(C)C[C@H](NC(=O)[C@H](Cc1ccc(O)cc1)NC(=O)[C@H](CCCCN)NC(=O)[C@H](CO)NC(=O)[C@H](CC(C)C)NC(=O)[C@H](CC(=O)O)NC(=O)[C@H](CO)NC(=O)[C@@H](NC(=O)[C@H](Cc1ccccc1)NC(=O)[C@@H](NC(=O)CNC(=O)[C@H](CCC(N)=O)NC(=O)C(C)(C)NC(=O)[C@@H](N)Cc1c[nH]cn1)[C@@H](C)O)[C@@H](C)O)C(=O)N[C@@H](CCC(=O)O)C(=O)N[C@@H](CO)C(=O)N[C@@H](CCCNC(=N)N)C(=O)N[C@@H](CCCNC(=N)N)C(=O)N[C@@H](C)C(=O)N[C@@H](CCCNC(=N)N)C(=O)N[C@@H](CCC(=O)O)C(=O)N[C@@H](Cc1ccccc1)C(=O)N[C@H](C(=O)N[C@@H](CCC(N)=O)C(=O)N[C@@H](Cc1c[nH]c2ccccc12)C(=O)N[C@@H](CC(C)C)C(=O)N[C@@H](CC(C)C)C(=O)N[C@@H](CCCCNC(=O)CC[C@H](NC(=O)CC[C@H](NC(=O)COCCOCCNC(=O)COCCOCCNC(=O)CC[C@H](NC(=O)CCCCCCCCCCCCCCCCC(=O)O)C(=O)O)C(=O)O)C(=O)O)C(=O)N[C@H](C(N)=O)[C@@H](C)O)C(C)C [Example 23, N^ε28-[(4S)-4-carboxy-4-[[(4S)-4-carboxy-4-[[2-[2-[2-[[2-[2-[2-[[(4S)-4-carboxy-4-(17-carboxyheptadecanoylamino)butanoyl]amino]ethoxy]ethoxy]acetyl]amino]ethoxy]ethoxy]acetyl]amino]butanoyl]amino]butanoyl]-[Aib2,Leu10,Glu15,Arg20,Glu21,Leu27,Lys28]-Glucagon amide] (H-H[Aib]QGTFTSDLSKYLESRRAREFVQWLLK([γGlu-γGlu-AEEA-AEEA-γGlu-C18 diacid])T-NH2; N-terminus assumed)
10.35	CC(C)C[C@H](NC(=O)[C@H](Cc1ccc(O)cc1)NC(=O)[C@H](CCCCN)NC(=O)[C@H](CO)NC(=O)[C@H](CC(C)C)NC(=O)[C@H](CC(=O)O)NC(=O)[C@H](CO)NC(=O)[C@@H](NC(=O)[C@H](Cc1ccccc1)NC(=O)[C@@H](NC(=O)CNC(=O)[C@H](CCC(N)=O)NC(=O)C(C)(C)NC(=O)[C@@H](N)Cc1c[nH]cn1)[C@@H](C)O)[C@@H](C)O)C(=O)N[C@@H](CCC(=O)O)C(=O)N[C@@H](CO)C(=O)N[C@@H](CCCCN)C(=O)N[C@@H](CCCNC(=N)N)C(=O)N[C@@H](C)C(=O)N[C@@H](CCCNC(=N)N)C(=O)N[C@@H](CCC(=O)O)C(=O)N[C@@H](Cc1ccccc1)C(=O)N[C@H](C(=O)N[C@@H](CCC(N)=O)C(=O)N[C@@H](Cc1c[nH]c2ccccc12)C(=O)N[C@@H](CC(C)C)C(=O)N[C@@H](CC(C)C)C(=O)N[C@@H](CCCCNC(=O)CNC(=O)[C@H](CO)NC(=O)[C@H](CCC(=O)O)NC(=O)CNC(=O)[C@H](CO)NC(=O)CC[C@H](NC(=O)CC[C@H](NC(=O)CCCCCCCCCCCCCCCCC(=O)O)C(=O)O)C(=O)O)C(=O)N[C@H](C(N)=O)[C@@H](C)O)C(C)C [Example 25, N^ε28-[2-[[(2S)-2-[[(2S)-4-carboxy-2-[[2-[[(2S)-2-[[(4S)-4-carboxy-4-[[(4S)-4-carboxy-4-(17-carboxyheptadecanoylamino)butanoyl]amino]butanoyl]amino]-3-hydroxypropanoyl]amino]acetyl]amino]butanoyl]amino]-3-hydroxypropanoyl]amino]acetyl]-[Aib2,Leu10,Glu15,Lys17,Arg20,Glu21,Leu27,Lys28]-Glucagon amide] (I: H-H[Aib]QGTFTSDLSKYLESKRAREFVQWLLKT-NH2 / II: {C18 diacid-γGlu-γGlu}-SGESG; amide I:28-II:C; N-terminus assumed)
11.54	CC(C)C[C@H](NC(=O)[C@H](Cc1c[nH]c2ccccc12)NC(=O)[C@H](C)NC(=O)[C@@H](NC(=O)[C@H](Cc1ccccc1)NC(=O)[C@H](CCC(=O)O)NC(=O)[C@H](CCCNC(=N)N)NC(=O)[C@H](C)NC(=O)[C@H](CCCNC(=N)N)NC(=O)[C@H](CCCNC(=N)N)NC(=O)[C@H](CO)NC(=O)[C@H](CCC(=O)O)NC(=O)[C@H](CC(C)C)NC(=O)[C@H](Cc1ccc(O)cc1)NC(=O)[C@H](CCCCN)NC(=O)[C@H](CO)NC(=O)[C@H](CC(C)C)NC(=O)[C@H](CC(=O)O)NC(=O)[C@H](CO)NC(=O)[C@@H](NC(=O)[C@H](Cc1ccccc1)NC(=O)[C@@H](NC(=O)CNC(=O)[C@H](Cc1c[nH]cn1)NC(=O)C(C)(C)NC(=O)[C@@H](N)Cc1c[nH]cn1)[C@@H](C)O)[C@@H](C)O)C(C)C)C(=O)N[C@@H](CC(C)C)C(=O)N[C@@H](CCCCNC(=O)CC[C@H](NC(=O)COCCOCCNC(=O)COCCOCCNC(=O)CC[C@H](NC(=O)CC[C@H](NC(=O)CCCCCCCCCCCCCCCCC(=O)O)C(=O)O)C(=O)O)C(=O)O)C(=O)N[C@H](C(N)=O)[C@@H](C)O [Example 31, N^ε28-[(4S)-4-carboxy-4-[[2-[2-[2-[[2-[2-[2-[[(4S)-4-carboxy-4-[[(4S)-4-carboxy-4-(17-carboxyheptadecanoylamino)butanoyl]amino]butanoyl]amino]ethoxy]ethoxy]acetyl]amino]ethoxy]ethoxy]acetyl]amino]butanoyl]-[Aib2,His3,Leu10,Glu15,Arg20,Glu21,Ala24,Leu27, Lys28]-Glucagon amide] (H-H[Aib]HGTFTSDLSKYLESRRAREFVAWLLK([γGlu-AEEA-AEEA-γGlu-γGlu-C18 diacid])T-NH2; N-terminus assumed)
11.54	CC(C)C[C@H](NC(=O)[C@H](Cc1ccc(O)cc1)NC(=O)[C@H](CCCCN)NC(=O)[C@H](CO)NC(=O)[C@H](CC(C)C)NC(=O)[C@H](CC(=O)O)NC(=O)[C@H](CO)NC(=O)[C@@H](NC(=O)[C@H](Cc1ccccc1)NC(=O)[C@@H](NC(=O)CNC(=O)[C@H](Cc1c[nH]cn1)NC(=O)C(C)(C)NC(=O)[C@@H](N)Cc1c[nH]cn1)[C@@H](C)O)[C@@H](C)O)C(=O)N[C@@H](CCC(=O)O)C(=O)N[C@@H](CO)C(=O)N[C@@H](CCCCN)C(=O)N[C@@H](CCCNC(=N)N)C(=O)N[C@@H](C)C(=O)N[C@@H](CCCNC(=N)N)C(=O)N[C@@H](CCC(=O)O)C(=O)N[C@@H](Cc1ccccc1)C(=O)N[C@H](C(=O)N[C@@H](CCC(N)=O)C(=O)N[C@@H](Cc1c[nH]c2ccccc12)C(=O)N[C@@H](CC(C)C)C(=O)N[C@@H](CC(C)C)C(=O)N[C@@H](CCCCNC(=O)CC[C@H](NC(=O)CC[C@H](NC(=O)CC[C@H](NC(=O)CCCCCCCCCCCCCCCCC(=O)O)C(=O)O)C(=O)O)C(=O)O)C(=O)N[C@H](C(N)=O)[C@@H](C)O)C(C)C [Example 34, N^ε28-[(4S)-4-carboxy-4-[[(4S)-4-carboxy-4-[[(4S)-4-carboxy-4-(17-carboxyheptadecanoylamino)butanoyl]amino]butanoyl]amino]butanoyl]-[Aib2,His3,Leu10,Glu15,Lys17,Arg20,Glu21,Leu27,Lys28]-Glucagon amide] (H-H[Aib]HGTFTSDLSKYLESKRAREFVQWLLK([γGlu-γGlu-γGlu-C18 diacid])T-NH2; N-terminus assumed)
